# Data from a melting point compilation (Tetko et al.; mined from patent text by program, amines drawn as free bases though some values may be those of a salt).
row,SMILES,melting point [°C]
1,CCOCc1nc2c(N)nc3cc(-c4cccc(CO)c4)cnc3c2n1CC(C)(C)NS(C)(=O)=O,173 to 174
2,FC(F)(F)CO[Si](c1ccccc1)(c1ccccc1)c1ccccc1,114
3,Cc1ccc(Cl)cc1N1CCCN(CC(C)C)C1=S,96 to 98
4,CCC(C)NC(=O)OC1c2ccccc2C(=O)N1c1ccc2ccc(Cl)nc2n1 (stereo unspecified),220 to 222
5,OC[C@H](O)[C@@H](O)CCNCc1ccccc1,117 to 118
6,O=S(=O)(c1ccccc1)C1CCCC2(C1)OCCO2 (stereo unspecified),93 to 95
7,O=[N+]([O-])c1cc(F)cc2c(Cl)ccnc12,120 to 130
8,Cc1nn(C)c(NCC(C)(C)C)c1N,65 to 69
9,CCOC(=O)c1cn(C)nc1OCc1ccccc1,66 to 67
10,COc1ccc(NC(=O)c2ccc(Br)cc2)cc1N1CCN(C(=O)OC(C)(C)C)CC1,156 to 158
11,CC(C)(C)c1ccc(C(=O)Nc2ccc(OCCO)cc2)cc1,136 to 142
12,O=C1C2CCCCC2=Nc2ccccc2N1Cc1ccccc1 (stereo unspecified),123 to 125
13,COc1ccc(C(=O)NCCc2ccc(-c3ccc(O)cc3)cc2)cc1OC,170
14,COC(=O)N=P(c1ccccc1)(c1ccccc1)c1ccccc1CN(C)C,95 to 97
15,COC(=O)C(C(=O)OC)c1ccc2c(c1)C(=O)c1cc3ccccc3cc1C2=O,211 to 215
16,N#Cc1cnn2c1N(C(=O)CN1CCN(CC#CCN3CCCC3=O)CC1)CC=C2c1cccc(C(F)(F)F)c1,124 to 126
17,CN(C)C(=O)c1cncn1C,46 to 47
18,O=C1CCC(=O)N1CCCCSc1ccncc1,80 to 81
19,CNC(=O)c1cc(O)cc2c1N(C)C1N(C)CCC21C (stereo unspecified),202 to 204
20,CC(n1ccnc1)C1(c2ccc(Cl)cc2Cl)SCCS1 (stereo unspecified),142
21,CCN(CC)CCNC(=O)c1cnc(-c2ccccc2)nc1Cl,40 to 45
22,CCOP(=O)(OCC)C(CCc1cc(C)nc2c(C#N)c(-c3ccccc3)nn12)P(=O)(OCC)OCC,107
23,c1cc(NC2=NCCO2)c2occc2c1,124 to 126

row,SMILES,melting point [°C]
1,CCC(=O)C(C#N)Cc1cc(Cl)cc(Cl)c1 (stereo unspecified),59 to 60
2,O=C(O)c1cccc(Cn2cc(C3c4ccccc4C=Cc4ccccc43)c(=S)[nH]c2=O)c1,> 230
3,Cc1sc(-c2ccccc2)nc1COc1ccc(COc2ncccc2CO)cc1,111 to 112
4,C=C(C)CN(CC)c1nc(C)[nH]c2cc(-c3ccccc3)nc1-2,148 to 150
5,CC1(C)OCC(NC(=O)c2ccc([N+](=O)[O-])cc2)CO1,211
6,COc1cc(Cc2cnc(N)nc2N)cc(OC)c1Cl,218
7,CCN(CC)CCNc1ccc(CNc2ccccc2)c2sc3ccccc3c(=O)c12,133 to 135
8,Cc1cc(C#N)cc(CNc2c(NC(C)(C)C)c(=O)c2=O)c1,253 to 255
9,CCCCOc1cc(/C=C(\OCC)C(=O)O)ccc1CCCc1ccc(OS(=O)(=O)CCCC)c(OC)c1,75
10,COc1ccc(S(=O)(=O)C2(C(=O)NO)CCN(Cc3ccc(C)cc3)CC2)cc1,176 to 177
11,Clc1ccc(OCCN2CCN3CC=C(c4ccncc4)N=C32)cc1,211 to 213
12,CC(=O)N(Cc1ccc(Cl)cc1Cl)c1cncnc1,134 to 136
13,COC(=O)c1cccc(-c2ncc(N=CN(C)C)cn2)c1,146
14,FC(F)(F)C(Cc1ccccc1)(C(F)(F)F)C(F)(F)F,32 to 33
15,Cc1ccc(S(=O)(=O)N(c2ccc(Cl)cc2[N+](=O)[O-])C2CC2)cc1,98.5 to 100
16,OCc1ccccc1-c1ccccc1CO,98 to 103
17,COc1ccc(NS(C)(=O)=O)cc1C(=O)NC1CCN(C2CCCCC2)C1 (stereo unspecified),170 to 172
18,CCN(CCc1coc2c(OC)cccc12)C1COc2c(F)ccc(C(N)=O)c2C1 (stereo unspecified),124 to 132
19,c1ccc(-c2ncc(-c3cnc[nH]3)cn2)cc1,216
20,COc1cc(C)nc(NC(=O)NS(=O)(=O)c2csc3ccccc23)n1,180 to 181
21,CCOC(=O)C(Oc1ccc(Cl)cc1)c1ccc(Oc2ccc(Cl)cc2)cc1 (stereo unspecified),52.5 to 54
22,O=C(O)c1ccc(OCCNC(=O)C2Cc3ccccc3N2S(=O)(=O)c2ccc(-c3cccc(C(F)(F)F)c3)cc2)cc1F (stereo unspecified),97 to 105
23,O=C(N[C@@H](Cc1ccc(NC(=O)c2c(Cl)cccc2Cl)cc1)C(=O)O)OCC1c2ccccc2-c2ccccc21,230 to 234

row,SMILES,melting point [°C]
1,O=C(O)c1cn(C2CC2)c2cc(N3CCC(c4ccncc4)C3)c(F)cc2c1=O (stereo unspecified),260 to 261
2,COc1ccc(Cl)c2c1[nH]c(=O)n1nc(CO)cc21,221 to 222
3,COC(=O)c1cc(OC)c(OS(=O)(=O)C(F)(F)F)cc1N,85 to 87
4,CCCOc1ccccc1-c1ccc(C(=O)OC)c(=O)[nH]1,126 to 128
5,Cc1nc(O)n(COCc2ccccc2)c1Sc1ccccc1,147 to 148
6,Cc1ccccc1N(CC(=O)N(C)c1ccccc1)C(=O)CN1C(=O)c2ccccc2C1=O,120
7,O=[N+]([O-])c1ccc(N2CCN(c3cc(N4CCCC4)nc(N4CCCC4)n3)CC2)cc1,200 to 201
8,Cc1c(C#N)ncn1-c1cccc(O)c1,205 to 207
9,CS(=O)(=O)c1ccc(-c2cnn(-c3cccc(Cl)c3)c(=O)c2Sc2ccccn2)cc1,110 to 114
10,O=C(CCc1ccc(Cl)cc1)N1CCC(CCO)CC1,88 to 90
11,CC1NC(=O)NN=C1c1ccc(N)c(Br)c1 (stereo unspecified),222 to 224
12,CCCc1n[nH]c(CCC)n1,69 to 70
13,COc1cnc(N2CCN(c3ccc(-n4c(C)n[nH]c4=O)cc3)CC2)nc1,> 300
14,CN(C(=O)c1ccc(Nc2nccc(Nc3ccc(C(F)(F)F)cc3)n2)cc1)C1CCOCC1,254 to 256
15,CCOc1cccc2c1c(=O)n(C)c1c(-c3noc(C4CC4)n3)ncn21,195 to 205
16,COC(=O)C(=O)C12CC3CC(CC(O)(C3)C1)C2,164 to 166
17,CCOc1ccc(-c2nc(CCC(=O)O)cs2)cc1OCC,111 to 114
18,CC(=O)OC1CSC(Oc2cccc(C)n2)C(OC(C)=O)C1OC(C)=O (stereo unspecified),106
19,COC(=O)c1ccc(OCCCCC2Cc3c(c(OC)c(OC)c(OC)c3OC)C2)cc1,68 to 71
20,Cc1ccc2[nH]c(=O)oc(=O)c2c1,257
21,O=C(O)CC(O)c1ccc(-c2ccc(Cl)c(Cl)c2)o1 (stereo unspecified),95 to 96
22,CSCC(=O)[C@H](Cc1ccccc1)NC(=O)[C@H](CC(C)C)NS(=O)(=O)c1ccccc1,133 to 136

# More lines, now with the values ahead:
row,melting point [°C],SMILES
1,228 to 230,c1ccc(-c2cc(NC3=NCCN3)n(-c3ccccc3)n2)cc1
2,146 to 148,Cc1nc(N2CCNCC2)nc(N2CCSCC2)c1C#N
3,195,COc1cccc(-c2cccc(OC3SCC(OC(C)=O)C(OC(C)=O)C3OC(C)=O)c2)n1 (stereo unspecified)
4,149 to 151,CCOCc1nc2c(N)nc(C)c(C)c2n1NCc1ccccc1
5,263 to 264,CC(=O)Nc1ccc(Nc2ncnc3[nH]cc(C(=O)c4ccccc4)c23)cc1
6,188 to 193,c1ccc(Nc2ncc3cc4ccccc4n3n2)cc1
7,138 to 140,CCOC(=O)c1nc(NCC(c2ccccc2)c2ccccc2)c2ncn(C3CCCCO3)c2n1 (stereo unspecified)
8,164 to 166,CN(Cc1ccccc1S(=O)c1nc2ccccc2[nH]1)c1ccccc1 (stereo unspecified)
9,194 to 195,CC(C)CC(S)C(=O)NC(Cc1ccc(Br)nc1)C(=O)NC(Cc1ccc(-c2cccs2)nc1)C(=O)O (stereo unspecified)
10,89 to 90,C=CS(=O)(=O)N1CCC(N2N=C(c3ccc(OC)c(OC)c3)[C@H]3CC=CC[C@H]3C2=O)CC1
11,208 to 213,CCN1C(=O)C(C(=O)Nc2cccc(C(=O)Nc3ccccc3)c2)c2cc(C(=O)C3CCCC3)ccc21 (stereo unspecified)
12,78 to 80,CC1=CSC(C)C(=O)N1 (stereo unspecified)
13,126 to 127,CCC(COCc1cc(OC)c(O)c(OC)c1)(c1cccs1)N(C)C (stereo unspecified)
14,95 to 96,CC1CCC(C(C)C)C(OC(=O)[C@H]2C[C@@H]2C(=O)OC2CC(C)CCC2C(C)C)C1 (stereo partly specified)
15,161,Cc1ccc(N(c2ccc(C)cc2)c2ccc(C=Cc3cc(O)cc(O)c3)cc2)cc1
16,135 to 138,Cc1nn(CC(F)(F)F)c(C(=O)O)c1[N+](=O)[O-]
17,67 to 69,COC(=O)Cc1ccc2c(=O)c3ccccc3ccc2c1

row,melting point [°C],SMILES
1,67 to 69,Cc1cc2c(cc1N1CCCC1)OC(=O)C2C (stereo unspecified)
2,108 to 110,C[Si](C)(C)C#Cc1ccc(C2=CC(c3ccc(C#C[Si](C)(C)C)cc3)N(c3ccccc3)N2)cc1 (stereo unspecified)
3,74 to 75,Nc1ccc(CO)cc1N
4,146 to 149,COc1ccsc1-c1nsc2ccc(N3C(=O)C4=C(CCCC4)C3=O)cc12
5,69 to 78,COC(=O)C1(C)CN(C(=S)Nc2ccc(Cl)cc2)N=C1c1ccc(Cl)cc1 (stereo unspecified)
6,180 to 181,CN1CCN(C(=O)c2ccc(-c3cnc4c(c3)N(Cc3ccccc3)CCN4)cc2)CC1
7,174 to 178,COC(=O)c1cc2ccccc2c(-c2ccnc(Cl)c2)c1C(=O)OC
8,75 to 77,COC(=O)c1ccc(S(=O)Cc2cccc(Cl)c2)cn1 (stereo unspecified)
9,230 to 232,N#Cc1c(Cl)ccc(C(=O)O)c1Cl
10,151 to 154,O=C(O)CC(C(=O)NC(CO)Cc1ccccc1)C1(c2ccc(-c3ccccc3)cc2)C=CNC1 (stereo unspecified)
11,142 to 143,Cc1c(NC(=O)c2ccc(OC[C@@H]3CCCO3)cc2)ccc2cc(CNCC(C)C)cnc12
12,105 to 106,CC(=O)c1cc(C(C)=O)c(OCCCCC#N)cc1O
13,197 to 199,CC1C2C(CON2C)CN1c1c(F)cc2c(=O)c(C(=O)O)cn(C3CC3)c2c1F (stereo unspecified)
14,201,O=C(NCc1ccc(Cl)c(Cl)c1)Nc1cccc2[nH]ccc12
15,121 to 123,COc1ccc(OC)c(NC(=O)c2cc(OC)ccc2OC)c1
16,193 to 194,O=C(Oc1ccc(Oc2ccccc2)cc1)c1ccc(C(=O)Oc2ccc(Oc3ccccc3)cc2)cc1
